Columns and labels:
Type in all cases: in vivo
Adoxophyes honmai = assay: Pesticidal test against Adoxophyes honmai (artificial feed dip); conditions: 144 h, concentration 1 ppm, 2-stage larvae, examined after 6 days, 25° C., read-out: pesticidal rate
Method in brief: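 Thin artificial feed slices dipped 30 s in test solution at a predetermined concentration, air-dried, then offered to 2nd-stage larvae. Kept at 25° C; live and dead larvae counted after 6 days. Five larvae per group, two replicates.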

Spodoptera litura = assay: Pesticidal test against Spodoptera litura (cabbage leaf dip); conditions: foliar, 144 h, concentration 1 ppm, 2-stage larvae, examined after 6 days, 25° C., read-out: pesticidal rate
Method in brief: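 Cabbage leaf pieces dipped 30 seconds in compound solution at a predetermined concentration and air-dried, then offered to second-stage larvae, five per group in two replicates. Held at 25° C. Living and dead larvae counted after 6 days.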

Ctenocephalides Felis = assay: Insecticidal test for Ctenocephalides felis, Test Example 3 (dry film in glass tube, 0.96 ml, Table A5); conditions: adults of Ctenocephalides felis, after 24 hours of exposure, in triplicate
Experimental: Insecticidal Test for Ctenocephalides felis
0.96 ml of a solution of acetone, the active ingredient, prepared to the prescribed concentration was added dropwise to a glass tube with a flat bottom (internal diameter: 3.6 cm, height: 12 cm), and the solvent was evaporated at room temperature to form a dry film of the agent on the bottom surface. About 10 adults of Ctenocephalides felis per glass tube were added, and they were contact-exposed to the test compound. After 24 hours of the exposure, the conditions of the adults were examined and classified into “alive” and “dead (including a moribund condition)” to determine the death rate was determined (in triplicate).
As the comparative compounds, the following Compounds (D) and (E) disclosed in WO2009/080203, and fipronil were used.

Laodelphax striatellus = assay: Pesticidal test against Laodelphax striatellus (rice seedling spray); conditions: 144 h, concentration 100 ppm, 3-stage larvae, examined after 6 days, 25° C., read-out: pesticidal rate
Method in brief: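 Rice seedlings sprayed with 2.5 ml acetone solution of compound at a predetermined concentration, air-dried, then infested with third-stage Laodelphax striatellus larvae in capped water-containing tubes at 25 °C. Living and dead insects counted after 6 days; ten larvae per group, two replicates.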

Coptotermes formosanus = assay: Pesticidal test against Coptotermes formosanus (treated filter paper); conditions: 120 h, concentration 30 ppm, examined after 5 days of treatment, 28° C., read-out: pesticidal rate
Experimental: Pesticidal Test against Coptotermes formosanus
20 μl of an acetone solution in which a test compound had been prepared at a predetermined concentration was added dropwise to the filter paper having a diameter of […] included in a polypropylene cup, and air-dried, and then 20 μl of water was added thereto. Coptotermes formosanus was released and the cup was capped. They were left to stand in a thermostatic chamber at 28° C., and the numbers of the living pests and the dead pests were examined after 5 days of treatment. The test was carried out with ten larvae per group in two replicates.

Helicoverpa armigera = assay: Pesticidal test against Helicoverpa armigera (cabbage leaf disk dip); conditions: foliar, 72 h, concentration 1 ppm, 2-stage larvae, examined after 3 days, 25° C., read-out: pesticidal rate
Method in brief: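 Cabbage leaf disks were dipped for 30 s in test solution at a set concentration and air-dried. Second-instar larvae were placed one per hole and held at 25 °C, with live and dead counts taken after 3 days. Five larvae per group were tested in two replicates.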

Musca domestica = assay: Pesticidal test against Musca domestica (petri dish dry film); conditions: 24 h, concentration 100 ppm, female adults, examined after 1 day, 25° C., read-out: pesticidal rate
Method in brief: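 Dry film from 1 ml acetone solution of compound at a predetermined concentration, air-dried in a 9 cm petri dish; female adult flies released and dish capped. Held at 25° C; living and dead counted after 1 day. Five insects per group, two replicates.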

Rhipicephalus sanguineus = assay: Insecticidal test for Rhipicephalus sanguineus (treated glass petri dish, Table A6); conditions: adults of Rhipicephalus sanguineus, 18 hour exposure, examined after 48 hours, in single
Experimental: Insecticidal Test for Rhipicephalus sanguineus
0.5 ml of a solution of acetone, the active ingredient, prepared to the prescribed dose was added dropwise into a glass petri dish with a diameter of 10 cm, and the acetone was evaporated at room temperature. About 10 adults of Rhipicephalus sanguineus per dish were added, and the dish was covered by another glass petri dish that was treated with the active ingredient in the same manner described above. After 18 hour exposure to the test substance, the adults were transferred into a glass petri dish that was not treated with the active ingredient. After 48 hours of the exposure, the conditions of the adults were examined and classified into “alive” and “dead (including a moribund condition)” to determine the death rate (in single).
As the comparative compounds, said Compounds (B), (C), and (D), and the following Compound (F) disclosed in WO2009/080203, and fipronil were used.

Blattella germanica = assay: Pesticidal test against Blattella germanica (petri dish dry film); conditions: 24 h, concentration 100 ppm, female adults, examined after 1 day, 25° C., read-out: pesticidal rate
Method in brief: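 Acetone solution of test compound at a predetermined concentration dried as a film in a 9 cm petri dish; female adult cockroaches released onto it and kept at 25° C. Living and dead counted after 1 day; five insects per group, two replicates.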

Row | SMILES | pest or weed control at 1 ppm (Adoxophyes honmai) [%] | pest or weed control at 1 ppm (Spodoptera litura) [%] | death rate (Ctenocephalides Felis; 0.03 μg/ml) [%] | death rate (Ctenocephalides Felis; 0.1 μg/ml) [%] | pest or weed control at 100 ppm (Laodelphax striatellus) [%] | pest or weed control at 30 ppm (Coptotermes formosanus) [%] | pest or weed control at 1 ppm (Helicoverpa armigera) [%] | pest or weed control at 100 ppm (Musca domestica) [%] | death rate (Rhipicephalus sanguineus; 0.0431 mg/m^2) [%] | death rate (Rhipicephalus sanguineus; 0.0861 mg/m^2) [%] | death rate (Rhipicephalus sanguineus; 0.172 mg/m^2) [%] | pest or weed control at 100 ppm (Blattella germanica) [%]
1 | CN(C(=O)c1ccccc1)c1cccc(C(=O)Nc2c(Br)cc(C(F)(C(F)(F)F)C(F)(F)F)cc2C(F)(F)F)c1F [7-1574, N-(2-bromo-4-(perfluoropropan-2-yl)-6-(trifluoromethyl)phenyl)-2-fluoro-3-(N-methylbenzamide)benzamide] | ≥ 70 | ≥ 70 | 72.0 | 98.9 | ≥ 70 | ≥ 70 | ≥ 70 | ≥ 70 | 10.0 | 100.0 | 100.0 | ≥ 70
2 | CN(C(=O)c1ccc(F)cc1)c1cccc(C(=O)Nc2c(I)cc(C(F)(C(F)(F)F)C(F)(F)F)cc2C(F)(F)F)c1F [7-1733, 2-fluoro-3-(4-fluoro-N-methylbenzamide)-N-(2-iodo-4-(perfluoropropan-2-yl)-6-(trifluoromethyl)phenyl)benzamide] | ≥ 70 | ≥ 70 | 21.1 | 91.6 | ≥ 70 | ≥ 70 | ≥ 70 | ≥ 70 | 0.0 | 80.0 | 100.0 | ≥ 70

— US8686044B2, “Amide derivative, pest control agent containing the amide derivative, and use of the amide derivative” (Mitsui Chemicals Agro, Inc., priority 2008, dated 2014)
